Source: ChEMBL document CHEMBL4613266, “Discovery and Structure Relationships of Salicylanilide Derivatives as Potent, Non-acidic P2X1 Receptor Antagonists” (J Med Chem, 2020)

How the values were obtained:
P2X purinoceptor 2 = target: T1, P2X purinoceptor 2 (Homo sapiens, UniProt Q9UBL9); assay: Antagonist activity at human P2X2 receptor expressed in human 1321N1 cells assessed as inhibition of ATP-induced cytosolic calcium influx preincubated for 30 mins followed by ATP addition by Fluo-4 AM dye-based fluorescence assay; assay type: cell-based
T1 sequence (Q9UBL9 whole entry): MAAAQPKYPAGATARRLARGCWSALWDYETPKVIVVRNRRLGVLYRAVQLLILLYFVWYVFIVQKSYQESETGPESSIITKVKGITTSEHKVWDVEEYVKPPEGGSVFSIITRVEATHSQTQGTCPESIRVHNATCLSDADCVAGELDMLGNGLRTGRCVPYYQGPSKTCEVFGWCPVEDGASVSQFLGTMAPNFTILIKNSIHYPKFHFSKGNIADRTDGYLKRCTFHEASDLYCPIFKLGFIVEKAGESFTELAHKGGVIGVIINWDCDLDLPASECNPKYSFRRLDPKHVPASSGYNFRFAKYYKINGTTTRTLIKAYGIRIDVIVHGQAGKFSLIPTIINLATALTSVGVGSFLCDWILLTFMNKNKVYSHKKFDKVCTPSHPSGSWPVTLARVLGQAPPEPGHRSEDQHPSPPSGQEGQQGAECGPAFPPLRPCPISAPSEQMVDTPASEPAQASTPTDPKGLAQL

P2X purinoceptor 1 [1] = target: P2X purinoceptor 1 (Homo sapiens, UniProt P51575); assay: Antagonist activity at non-desensitizing human P2X1 receptor ( P2X2/P2X1 chimera) expressed in human 1321N1 cells assessed as inhibition of ATP-induced calcium influx pre-incubated for 30 mins before ATP stimulation by FLIPR assay relative to control; assay type: cell-based
P2X purinoceptor 4 = target: T2, P2X purinoceptor 4 (Homo sapiens, UniProt Q99571); assay: Antagonist activity at human P2X4 receptor expressed in human 1321N1 cells assessed as inhibition of ATP-induced cytosolic calcium influx preincubated for 30 mins followed by ATP addition by Fluo-4 AM dye-based fluorescence assay; assay type: cell-based
T2 sequence (Q99571 whole entry): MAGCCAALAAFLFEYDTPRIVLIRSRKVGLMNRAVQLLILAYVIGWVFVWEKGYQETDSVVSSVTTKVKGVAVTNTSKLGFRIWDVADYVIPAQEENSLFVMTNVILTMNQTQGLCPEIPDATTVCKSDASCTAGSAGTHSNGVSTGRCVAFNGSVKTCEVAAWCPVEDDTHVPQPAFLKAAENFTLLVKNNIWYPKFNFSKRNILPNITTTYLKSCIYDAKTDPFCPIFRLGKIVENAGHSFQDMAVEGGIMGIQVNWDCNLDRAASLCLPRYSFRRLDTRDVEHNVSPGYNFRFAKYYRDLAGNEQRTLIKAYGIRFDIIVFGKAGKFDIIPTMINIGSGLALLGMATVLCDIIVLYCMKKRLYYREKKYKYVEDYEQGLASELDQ

P2X purinoceptor 7 = target: T3, P2X purinoceptor 7 (Homo sapiens, UniProt Q99572); assay: Antagonist activity at human P2X7 receptor expressed in human 1321N1 cells assessed as inhibition of ATP-induced cytosolic calcium influx preincubated for 30 mins followed by ATP addition by Fluo-4 AM dye-based fluorescence assay; assay type: cell-based
T3 sequence (Q99572 whole entry): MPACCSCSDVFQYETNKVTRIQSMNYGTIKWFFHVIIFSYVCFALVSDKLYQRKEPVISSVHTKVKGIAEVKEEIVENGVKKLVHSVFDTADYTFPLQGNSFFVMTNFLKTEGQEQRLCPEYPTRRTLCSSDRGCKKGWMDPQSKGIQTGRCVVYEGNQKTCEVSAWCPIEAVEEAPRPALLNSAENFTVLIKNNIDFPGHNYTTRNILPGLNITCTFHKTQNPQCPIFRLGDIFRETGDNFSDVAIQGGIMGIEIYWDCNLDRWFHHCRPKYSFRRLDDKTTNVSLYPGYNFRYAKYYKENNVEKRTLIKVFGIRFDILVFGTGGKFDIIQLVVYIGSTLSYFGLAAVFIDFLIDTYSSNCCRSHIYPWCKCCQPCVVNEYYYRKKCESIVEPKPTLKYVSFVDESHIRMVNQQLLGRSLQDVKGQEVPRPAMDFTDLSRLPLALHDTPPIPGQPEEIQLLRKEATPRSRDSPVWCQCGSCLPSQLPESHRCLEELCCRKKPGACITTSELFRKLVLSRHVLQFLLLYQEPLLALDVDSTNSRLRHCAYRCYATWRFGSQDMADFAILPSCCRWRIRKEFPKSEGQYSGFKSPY

[2] = target: T4, P2X purinoceptor 3 (Homo sapiens) (UniProt P56373); assay: Antagonist activity at human P2X3 receptor expressed in human 1321N1 cells assessed as inhibition of ATP-induced cytosolic calcium influx at 10 uM preincubated for 30 mins followed by ATP addition by Fluo-4 AM dye-based fluorescence assay relative to control; assay type: cell-based
T4 sequence (whole entry): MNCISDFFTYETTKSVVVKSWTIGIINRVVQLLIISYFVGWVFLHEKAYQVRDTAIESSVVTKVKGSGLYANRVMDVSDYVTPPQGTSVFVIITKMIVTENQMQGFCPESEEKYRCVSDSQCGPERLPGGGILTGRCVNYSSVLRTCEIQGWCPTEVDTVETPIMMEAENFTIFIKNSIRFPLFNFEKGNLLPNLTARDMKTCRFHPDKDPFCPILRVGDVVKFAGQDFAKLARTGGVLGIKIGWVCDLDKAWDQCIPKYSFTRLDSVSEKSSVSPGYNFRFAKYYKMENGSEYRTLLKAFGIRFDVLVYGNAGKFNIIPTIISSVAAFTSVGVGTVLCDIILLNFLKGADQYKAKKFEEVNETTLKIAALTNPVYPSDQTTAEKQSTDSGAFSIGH

P2X purinoceptor 3 = target: T5, P2X purinoceptor 3 (Homo sapiens, UniProt P56373); assay: Antagonist activity at human P2X3 receptor expressed in human 1321N1 cells assessed as inhibition of ATP-induced cytosolic calcium influx preincubated for 30 mins followed by ATP addition by Fluo-4 AM dye-based fluorescence assay; assay type: cell-based
T5 sequence (P56373 whole entry): T4 sequence (whole entry)

[3] = target: T6, P2X purinoceptor 1 (Homo sapiens) (UniProt P51575); assay: Antagonist activity at non-desensitizing human P2X1 receptor ( P2X2/P2X1 chimera) expressed in human 1321N1 cells assessed as inhibition of ATP-induced calcium influx at 10 uM pre-incubated for 30 mins before ATP stimulation by FLIPR assay relative to control; assay type: cell-based
T6 sequence (whole entry): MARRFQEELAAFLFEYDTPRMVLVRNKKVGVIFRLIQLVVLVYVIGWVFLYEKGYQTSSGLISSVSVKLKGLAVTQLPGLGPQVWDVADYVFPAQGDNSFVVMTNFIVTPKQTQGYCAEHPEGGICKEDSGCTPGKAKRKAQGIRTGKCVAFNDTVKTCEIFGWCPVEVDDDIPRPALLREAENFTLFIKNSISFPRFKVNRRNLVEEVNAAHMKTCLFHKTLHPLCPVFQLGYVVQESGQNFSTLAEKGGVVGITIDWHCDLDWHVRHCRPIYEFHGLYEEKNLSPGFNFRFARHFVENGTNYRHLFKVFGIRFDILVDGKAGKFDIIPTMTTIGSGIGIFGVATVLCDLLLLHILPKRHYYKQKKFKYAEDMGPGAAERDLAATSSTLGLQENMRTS

[4] = target: T7, P2X purinoceptor 2 (Homo sapiens) (UniProt Q9UBL9); assay: Antagonist activity at human P2X2 receptor expressed in human 1321N1 cells assessed as inhibition of ATP-induced cytosolic calcium influx at 10 uM preincubated for 30 mins followed by ATP addition by Fluo-4 AM dye-based fluorescence assay relative to control; assay type: cell-based
T7 sequence (whole entry): T1 sequence (Q9UBL9 whole entry)

P2X purinoceptor 1 [5] = target: T8, P2X purinoceptor 1 (Rattus norvegicus, UniProt P47824); assay: Antagonist activity at rat P2X1 receptor
T8 sequence (P47824 whole entry): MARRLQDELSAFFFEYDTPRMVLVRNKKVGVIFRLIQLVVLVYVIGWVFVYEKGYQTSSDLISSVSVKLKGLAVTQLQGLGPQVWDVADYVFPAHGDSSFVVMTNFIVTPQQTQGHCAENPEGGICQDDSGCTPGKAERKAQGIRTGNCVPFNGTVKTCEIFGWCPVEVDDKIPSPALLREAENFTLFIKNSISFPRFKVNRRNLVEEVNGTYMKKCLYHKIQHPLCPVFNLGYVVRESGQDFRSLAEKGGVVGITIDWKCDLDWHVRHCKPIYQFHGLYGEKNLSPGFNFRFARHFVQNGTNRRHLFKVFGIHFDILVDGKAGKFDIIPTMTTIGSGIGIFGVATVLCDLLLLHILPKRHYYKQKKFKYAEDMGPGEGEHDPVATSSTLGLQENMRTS

[6] = target: T6, P2X purinoceptor 1 (Homo sapiens); assay: Antagonist activity at non-desensitizing human P2X1 receptor ( P2X2/P2X1 chimera) expressed in human 1321N1 cells assessed as inhibition of ATP-induced calcium influx at 100 uM pre-incubated for 30 mins before ATP stimulation by FLIPR assay relative to control; assay type: cell-based
[7] = target: T6, P2X purinoceptor 1 (Homo sapiens); assay: Antagonist activity P2X1 receptor in Apyrase pre-treated human platelets assessed as inhibition of TRAP6-induced platelet aggregation pre-incubated for 30 mins before TRAP6 stimulation by aggregometry relative to control; assay type: cell-based
[8] = target: T6, P2X purinoceptor 1 (Homo sapiens); assay: Antagonist activity P2X1 receptor in human platelets assessed as inhibition of ADP-induced platelet aggregation pre-incubated for 30 mins before ADP stimulation by aggregometry relative to control; assay type: cell-based
[9] = target: T6, P2X purinoceptor 1 (Homo sapiens); assay: Antagonist activity at non-desensitizing human P2X1 receptor ( P2X2/P2X1 chimera) expressed in human 1321N1 cells assessed as inhibition of ATP-induced calcium influx at 1 uM pre-incubated for 30 mins before ATP stimulation by FLIPR assay relative to control; assay type: cell-based

| Compound | IC50 (P2X purinoceptor 2) [nM] | IC50 (P2X purinoceptor 1 [1]) [nM] | IC50 (P2X purinoceptor 4) [nM] | IC50 (P2X purinoceptor 7) [nM] | inhibition [2] [%] | IC50 (P2X purinoceptor 3) [nM] | inhibition [3] [%] | inhibition [4] [%] | further results |
| --- | --- | --- | --- | --- | --- | --- | --- | --- | --- |
| O=C(Nc1cc(C(F)(F)F)cc(C(F)(F)F)c1)c1ccc2ccccc2c1O | > 10000 | 341 | 729 | 797 | – | – | – | – | – |
| O=C(Nc1cc(C(F)(F)F)cc(C(F)(F)F)c1)c1ccccc1O | > 10000 | 76.9 | 155 | 315 | 30 | > 10000 | 79 | 15 | – |
| O=C(N[C@H](Cc1cscn1)C(=O)N[C@@H](CC1CCCCC1)[C@@H](O)[C@@H](O)C1CC1)c1nc2ccccc2[nH]1 | – | 496 | – | – | – | – | 100 | – | IC50 (P2X purinoceptor 1 [5]): 3000 nM |
| O=C(Nc1ccc(Cl)c([N+](=O)[O-])c1)c1cc(Cl)ccc1O | – | 13500 | – | – | – | – | – | – | inhibition [6]: 80% |
| O=C(Nc1cccc(C(F)(F)F)c1)c1cc(Cl)ccc1O | > 10000 | 91 | 537 | 6320 | 4 | > 10000 | 75 | 5 | – |
| O=C(Nc1cc(C(=O)Nc2ccc(S(=O)(=O)O)cc2S(=O)(=O)O)cc(C(=O)Nc2ccc(S(=O)(=O)O)cc2S(=O)(=O)O)c1)Nc1cc(C(=O)Nc2ccc(S(=O)(=O)O)cc2S(=O)(=O)O)cc(C(=O)Nc2ccc(S(=O)(=O)O)cc2S(=O)(=O)O)c1 | – | – | – | – | – | – | 100 | – | IC50 (P2X purinoceptor 1 [5]): 0.28 nM |
| O=C(Nc1cc([N+](=O)[O-])cc(C(F)(F)F)c1)c1cccc(Cl)c1O | – | 219 | – | – | – | – | – | – | inhibition [6]: 83% |
| Cc1nc(/N=N/c2ccc(S(=O)(=O)O)cc2S(=O)(=O)O)c(COP(=O)(O)O)c(C=O)c1O | – | – | – | – | – | – | – | – | IC50 (P2X purinoceptor 1 [5]): 1000 nM |
| O=S(=O)(Nc1cc(C(F)(F)F)cc(C(F)(F)F)c1)c1cc(Cl)ccc1O | – | 439 | – | – | – | – | 80 | – | inhibition [7]: 8%; inhibition [8]: 27% |
| O=C(Nc1cc(C(F)(F)F)cc(C(F)(F)F)c1)c1ccc(Cl)cc1O | > 10000 | 23.1 | 209 | 196 | 2 | > 10000 | 59 | -5 | – |
| O=C(Nc1cc(Cl)cc(Cl)c1)c1cc(Cl)ccc1O | > 10000 | 29.3 | 712 | 70.4 | 5 | > 10000 | 56 | -5 | inhibition [7]: 13%; inhibition [8]: 26% |
| O=C(Nc1cc([N+](=O)[O-])cc(C(F)(F)F)c1)c1cc(Cl)ccc1O | > 10000 | 31.6 | 42.6 | 143 | 16 | > 10000 | 81 | 5 | – |
| N#Cc1cccc(NC(=O)c2cc(Cl)ccc2O)c1 | – | 522 | – | – | – | – | – | – | inhibition [9]: 60% |
| O=C(Nc1cc(C(F)(F)F)cc(C(F)(F)F)c1)N1CCCc2cccc(O)c21 | – | 10400 | – | – | – | – | – | – | inhibition [6]: 77% |
| O=C(Nc1cccc(Cl)c1)c1cc(Cl)ccc1O | > 10000 | 75.6 | 135 | 599 | 3 | > 10000 | 64 | 0 | – |
| COc1ccc(Cl)cc1C(=O)Nc1cc(C(F)(F)F)cc(C(F)(F)F)c1 | – | > 1000 | – | – | – | – | – | – | inhibition [9]: 17% |
| O=C(Nc1cccc(Br)c1)c1ccccc1O | – | 2690 | – | – | – | – | – | – | inhibition [6]: 98% |
| O=C(Nc1cc(C(F)(F)F)cc(C(F)(F)F)c1)c1cccc(Cl)c1O | > 10000 | 58 | 48.8 | 177 | 28 | > 10000 | 83 | 13 | – |
| O=C(Nc1cc(C(F)(F)F)cc(C(F)(F)F)c1)c1ccccc1 | – | 2220 | – | – | – | – | 79 | – | inhibition [8]: 47% |
| O=C(Nc1cccc(OC(F)(F)F)c1)c1cc(Cl)ccc1O | – | 7620 | – | – | – | – | – | – | inhibition [6]: 100% |
